Assay [1] deals with T1, P2Y receptor (turkey erythrocyte membranes) (Meleagris gallopavo, UniProt P49652).
T1 construct: from tissue; host or cells: washed turkey erythrocytes, ghosts prepared by hypotonic lysis
The experiment in a line: Stimulation of phospholipase C (inositol phosphate formation) in turkey erythrocyte membranes. The class given is biochemical. Put shortly: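 Erythrocytes were labelled 18-24 h at 37 °C with [3H]myoinositol, and ghosts were made by hypotonic lysis. Ghosts (≈175 μg protein) were incubated 5 min at 30 °C in Hepes buffer pH 7.0 with 1 μM GTPγS and nucleotide analogs. Total [3H]inositol phosphates were purified by anion exchange; K0.5 averaged from 3-8 dose-response curves.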

The test system of assay [2] is P2Y receptor (aorta endothelium). The experiment in a line: Relaxation of noradrenalin-contracted rabbit aorta. To be noted: for relaxation pD2, aorta: rabbit aorta, log molar units.
Method: In FIG. 14, the x-axis is also marked in units of the negative log of the molar concentration of applied putative P2Y receptor agonists and the y-axis is marked in units of the percentage relaxation of the 1 μM noradrenalin-induced contraction of rabbit aorta endothelium. In FIGS. 15-16, the x-axis is marked in units of the negative log of the molar concentration of applied putative p^2X receptor agonists and the y-axis is marked in units of the percentage contraction relative to a standard dose of KCl (i.e., 60 mM), as assessed in guinea pig isolated urinary bladder detrussor muscle (FIG. 15) and guinea pig isolated vas deferens (FIG. 16).
Assay [3] deals with T2, P2X receptor (saphenous artery) (Oryctolagus cuniculus, UniProt G1U3D6).
T2 construct: and rabbit saphenous artery; from tissue; host or cells: rabbit saphenous artery
T2 sequence (G1U3D6 1-399): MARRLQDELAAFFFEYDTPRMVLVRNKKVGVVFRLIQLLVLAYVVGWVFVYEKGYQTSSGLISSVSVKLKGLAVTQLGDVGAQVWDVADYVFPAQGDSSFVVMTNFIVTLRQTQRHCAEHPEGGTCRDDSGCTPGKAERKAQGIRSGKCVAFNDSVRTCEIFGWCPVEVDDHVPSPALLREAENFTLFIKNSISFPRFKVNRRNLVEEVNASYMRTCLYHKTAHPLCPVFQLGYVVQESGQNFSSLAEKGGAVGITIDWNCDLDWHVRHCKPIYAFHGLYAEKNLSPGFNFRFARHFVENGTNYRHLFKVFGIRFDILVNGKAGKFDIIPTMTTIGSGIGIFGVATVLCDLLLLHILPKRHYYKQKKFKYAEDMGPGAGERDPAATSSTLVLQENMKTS
The experiment in a line: Contraction of rabbit saphenous artery. To be noted: rabbit saphenous artery; for activation at 10 µM: read-out: response at 10 μM relative to the contraction produced by 1 μM α,MeATP, saph. artery. The source says:
(§1) Muscular relaxation/contraction: Relaxant responses mediated via P2Y receptors were examined in guinea pig taenia coli, rabbit aorta, and rabbit mesenteric artery, as described by Hoyle et al. (Br. J. Pharmacol., 107, 367-374 (1992a)), Burnstock et al., (Br. J. Pharmacol., 90, 383-391 (1987a)), and Rubino et al., (Eur. J. Pharmacol., 212, 237-240 (1992)). Contractile responses mediated via P2X receptors were examined in the guinea pig urinary bladder and vas deferens, and rabbit saphenous artery, also using standard methods (see Hoyle et al., supra., 1992; Hoyle et al., Br. J. Pharmacol., 99, 617-621 (1990); and Burnstock et al., Br. J. Pharmacol., 90, 111-120 (1987b)).
^c For the saphenous artery, the percentages in brackets are response
at 10 μM relative to the contraction produced by 1 μM α,MeATP
ATP in this assay is very weak (EC50 =
1.78 mM). The highest concentrations of the analogues tested were 3-30

For assay [4], the target named is T3, P2X receptor (vas deferens) (Cavia porcellus, UniProt A0A286XVA9).
T3 sequence (A0A286XVA9 1-399): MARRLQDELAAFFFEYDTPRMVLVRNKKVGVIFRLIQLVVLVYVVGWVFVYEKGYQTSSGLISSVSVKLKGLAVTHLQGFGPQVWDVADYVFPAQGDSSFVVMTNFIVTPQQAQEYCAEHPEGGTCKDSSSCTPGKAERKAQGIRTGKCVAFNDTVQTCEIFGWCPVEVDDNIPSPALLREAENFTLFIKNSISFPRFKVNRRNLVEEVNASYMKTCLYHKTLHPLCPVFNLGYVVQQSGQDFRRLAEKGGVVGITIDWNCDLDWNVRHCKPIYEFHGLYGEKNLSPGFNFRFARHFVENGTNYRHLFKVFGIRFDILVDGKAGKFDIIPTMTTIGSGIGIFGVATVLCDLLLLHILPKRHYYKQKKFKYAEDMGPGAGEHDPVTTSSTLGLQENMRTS
The experiment in a line: Contraction of guinea pig isolated vas deferens.

Assay [5] addresses T4, P2X receptor (urinary bladder) (Cavia porcellus, UniProt A0A286XVA9).
T4 construct: guinea pig isolated urinary bladder detrussor muscle; from tissue; host or cells: guinea pig isolated urinary bladder detrusor muscle
The experiment in a line: Contraction of guinea pig isolated urinary bladder detrussor muscle. Conditions: guinea pig urinary bladder.

Assay [6] has as its system P2X and P2Y receptors. The experiment in a line: Overall activity in the seven P2X and P2Y preparations.
The target of assay [7] is T5, P2Y receptor (taenia coli) (Cavia porcellus, UniProt P59902).
T5 construct: Relaxant responses mediated via P2Y receptors were examined in guinea pig taenia coli; from tissue; host or cells: guinea pig taenia coli (carbachol-contracted)
The experiment in a line: Relaxation of carbachol-contracted guinea pig taenia coli. Conditions: for activity/potency in words, taenia coli: guinea pig taenia coli. Put shortly:
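Guinea pig taenia coli precontracted with 50 nM carbachol; relaxation to applied P2Y agonists expressed as percentage relaxation against negative log molar agonist concentration.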

The target in assay [8] is P2Y receptor (mesenteric artery). The experiment in a line: Relaxation of rabbit mesenteric artery. To be noted: log molar units.
Assay [9] deals with T6, adenylyl cyclase linked P2Y receptor (C6 rat glioma cells) (Rattus norvegicus, UniProt Q9EPX4).
T6 construct: endogenous in cells; host or cells: C6 rat glioma cells
The experiment in a line: Inhibition of adenylyl cyclase in C6 rat glioma cells. The class given is cell-based. The procedure: This example illustrates the inhibition of adenylyl cyclase activity in C6 rat glioma cells, as a function of the presence of certain ATP analogs in the medium in which the C6 cells were cultured.
Cells were labelled by incubation for 2 hours in the presence of 1 to 2 mCi of tritiated adenine/ml in the medium. Cells were washed twice with HEPES (20 mM, pH 7.5)-buffered Eagle's medium and then preincubated for 10 minutes at 37° C. with fresh medium containing 200 μM 3-isobutyl-1-methylxanthine. Agonist incubations were initiated by the simultaneous addition of 10 μM isoproterenol and various concentrations of nucleotides. The reactions were stopped after 10 minutes of aspiration of the nucleotide-containing medium and addition of 1 ml of ice-cold 5% trichloroacetic acid.

Assay [10] has as its system P2Y receptors. The experiment in a line: Overall activity in P2Y receptor systems. The method, then:
Phospholipase C activity: Stimulation of inositol phosphate formation by compounds of the present invention was measured in turkey erythrocyte membranes as described by Harden et al., supra and Boyer et al., supra. The K0.5 values were averaged from 3-8 independently determined dose-response curves for each compound. Briefly, one ml of washed turkey erythrocytes was incubated in inositol-free medium (DMEM; Gibco) with 0.5-1 mCi of 2-[^3 H]myoinositol (20 Ci/mmol; American Radiolabeled Chemicals Inc., St. Louis, Mo.)for 18-24 h in a humidified atmosphere of 95% air 5% CO2 at 37° C. Erythrocyte ghosts were prepared by rapid lysis in hypotonic buffer (5 mM sodium phosphate, pH 7.4, 5 mM MgCl2, 1 mM EGTA) as described by Boyer et al., supra. Phospholipase C activity was measured in 25 μl of [^3 H]inositol-labeled ghosts (≈175 μg of protein, 200-500,000 cpm/assay) in a medium containing 424 μM CaC12, 0.91 mM MgSO4, 2 mM EGTA, 115 mM KCl, 5 mM KH2 PO4, and 10 mM Hepes, pH 7.0. Assay (100 μl or 200 μl final volume) contained 1 μM GTPγS and the indicated concentrations of nucleotide analogs. Ghosts were incubated at 30° C. for 5 min, and total [^3 H]inositol phosphates were quantitated after purification by anion exchange chromatography according to Harden et al. (supra) and Boyer et al. (supra).
as §1

Where [11] appears, read: turkey erythrocyte membranes, mean ± S.E.M. for at least 2 determinations, read-out: phosphatidyl inositol metabolism (K0.5, nM) erythrocyte.

Each structure is given as a SMILES string. Entries after “also recorded” stand apart in the source; their conditions may differ. Like-named read-outs stand apart in the source and are kept apart here.

T1 sequence (P49652 whole entry): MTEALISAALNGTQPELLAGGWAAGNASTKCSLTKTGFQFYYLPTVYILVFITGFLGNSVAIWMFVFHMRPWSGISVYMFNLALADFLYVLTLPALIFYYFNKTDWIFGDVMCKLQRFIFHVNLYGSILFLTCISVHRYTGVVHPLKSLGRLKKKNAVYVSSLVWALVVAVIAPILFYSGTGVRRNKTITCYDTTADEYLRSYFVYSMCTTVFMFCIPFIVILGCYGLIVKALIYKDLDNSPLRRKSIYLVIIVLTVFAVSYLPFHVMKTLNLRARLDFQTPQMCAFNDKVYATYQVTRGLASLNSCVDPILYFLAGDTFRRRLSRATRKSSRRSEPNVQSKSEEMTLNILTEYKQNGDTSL
T6 sequence (Q9EPX4 whole entry): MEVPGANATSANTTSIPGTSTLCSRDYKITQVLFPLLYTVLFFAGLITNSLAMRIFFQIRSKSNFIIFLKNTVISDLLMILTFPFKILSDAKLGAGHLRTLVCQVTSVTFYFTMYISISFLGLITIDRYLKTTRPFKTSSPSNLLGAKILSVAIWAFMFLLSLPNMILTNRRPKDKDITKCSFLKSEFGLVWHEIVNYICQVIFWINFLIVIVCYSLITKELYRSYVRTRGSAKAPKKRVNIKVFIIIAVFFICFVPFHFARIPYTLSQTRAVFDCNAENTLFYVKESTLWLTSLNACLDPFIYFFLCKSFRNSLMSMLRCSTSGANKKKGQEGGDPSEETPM
T5 sequence (P59902 whole entry): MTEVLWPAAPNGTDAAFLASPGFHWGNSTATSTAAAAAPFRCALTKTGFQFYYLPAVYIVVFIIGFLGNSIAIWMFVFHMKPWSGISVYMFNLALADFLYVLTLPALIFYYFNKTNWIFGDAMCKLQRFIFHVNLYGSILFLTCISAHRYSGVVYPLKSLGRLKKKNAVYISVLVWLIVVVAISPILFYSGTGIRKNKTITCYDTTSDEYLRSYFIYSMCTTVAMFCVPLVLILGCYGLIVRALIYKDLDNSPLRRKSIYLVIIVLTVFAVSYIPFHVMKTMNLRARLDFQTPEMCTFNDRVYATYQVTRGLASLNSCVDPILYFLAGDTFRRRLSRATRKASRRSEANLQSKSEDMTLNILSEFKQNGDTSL

In the case of `CC1(C)O[C@@H]2[C@H](O1)[C@@H](COP(=O)(O)OP(=O)(O)OP(=O)(O)O)O[C@H]2n1cnc2c(N)ncnc21` [2',3'-Isopropylidene-ATP, 2',3'-Isopropylidene adenosine 5'-triphosphate], the EC50 in [1] (setting [11]) turned out to be 201000 nM. Besides, the “activity/potency/selectivity in words, aorta” value in assay [2] (rabbit aorta endothelial P2Y receptor) is given as “high selectivity”. The activation at 10 µM in [3] came to 7.7%. Further, in assay [4], the “activity/potency in words, vas deferens” value is “inactive in the vas deferens”. For the same compound, in assay [5], the “activity/potency in words, bladder” value was “limited activity in the urinary bladder”. For the same compound, in [6], the “overall activity in words, all preparations” value is given as “Neither was particularly active at either P2X or P2Y receptors”.
Regarding `Nc1nc(SCCc2ccc([N+](=O)[O-])cc2)nc2c1ncn2[C@@H]1O[C@H](COP(=O)(O)OP(=O)(O)OP(=O)(O)O)[C@@H](O)[C@H]1O` [2-(2-p-Nitrophenylethyl)-thio-ATP, 2[2-(p-Nitrophen)ethylthio]adenosine 5'-triphosphate], the “activity/potency in words, turkey erythrocyte” value in assay [1] (turkey erythrocyte membranes) is given as “at least two orders of magnitude more potent”. Further, the EC50 is 12 ± 4 nM in [1] (setting [11]); 5 to 30 nM in assay [1] (turkey erythrocyte membranes, read-out: K0.5); 0.0316 µM in [7]. Further, the “relaxation pD2, aorta” value in [2] was 6.2. Besides, in assay [8], the “relaxation pD2, mes. artery” value amounted to 7.0. Also, the activation at 10 µM in assay [3] stood at 2.6%. In assay [9] (C6 rat glioma cells, 10 μM isoproterenol, read-out: K0.5 values (in nM) for inhibition of adenylyl cyclase in C6 cells), the IC50 came out at 1 ± 0.4 nM. The “selectivity for the adenylyl cyclase linked receptor, in words” value in [9] (versus phospholipase C linked receptor) is “only moderate selectivity for C6 cell receptors”.
For `Nc1ncnc2c1ncn2[C@@H]1O[C@@H]2COP(=O)(OP(=O)(O)CP(=O)(O)O)O[C@H]2[C@H]1O` (stereo partly drawn) [3',5'-Cyclic-β,γ-methylene adenosine 5'-triphosphate], the EC50 in assay [1] (at 10^-5 M, read-out: phosphatidyl inositol metabolism (K0.5) erythrocyte, class symbol) is above 10000 nM. For the same compound, the “overall activity in words, all preparations” value was “without effect in all seven types of preparation tested” in assay [6] (listed as Cyclized β,γ-methylene ATP); “greatly reduce or abolish activity within most P2X and P2Y preparations” in assay [6] (listed as β,γ-methylene-adenosine-3',5'-cyclic triphosphate).
On to `Nc1ncnc2c1ncn2[C@@H]1O[C@H](COP(=O)(O)OP(=O)(O)OP(=O)(O)O)[C@@H](N)[C@H]1O` [3'-Amino-3'deoxy-ATP, 3'-Amino-3'-deoxyadenosine 5'-triphosphate, reference compound], for which the “times more potent than ATP, turkey erythrocyte” value in assay [1] (relative to ATP) is “approximately 15 times”. Also, the EC50 in assay [1] (setting [11]) is 193 nM; in assay [7], 3.98 µM. Moreover, in [7], the “activity/potency in words, taenia coli” value was “almost as potent as ATP in the taenia coli”. Moreover, the “relaxation pD2, aorta” value in assay [2] came out at 6.4. For the same compound, the “activity/potency in words, saphenous artery” value in [3] is “inactive in the saphenous artery”. Moreover, the “activity/potency in words, vas deferens” value in assay [4] is “more or less as potent as ATP”. Moreover, the “activity/potency in words, bladder” value in [5] is reported as “more or less as potent as ATP”. Besides, the “overall activity in words, all preparations” value in [6] is “generally enhanced potency at P2 receptors”.
Take `Nc1ncnc2c1ncn2[C@@H]1O[C@H](COP(=O)(O)OP(=O)(O)OP(=O)(O)O)C[C@H]1O` [3'-Deoxy-ATP, 3'-deoxy-ATP, reference compound]: the EC50 in assay [1] (setting [11]) worked out at 75500 nM. The “activity/potency in words, saphenous artery” value in assay [3] is reported as “no effect”. Besides, the “activity/potency in words, vas deferens” value in assay [4] is reported as “as active as ATP, or nearly so; also recorded: equivalent to the effect of ATP”. The “activity/potency in words, bladder” value in assay [5] was “as active as ATP, or nearly so; also recorded: less potent or equal to potency of ATP”. For the same compound, the “overall activity in words, all preparations” value in assay [6] is “greatly reduce or abolish activity within most P2X and P2Y preparations”. In assay [10], the “overall activity in words, P2Y systems” value is given as “less potent than 2'-deoxy-ATP at P2Y receptors”.
For the compound `Nc1ncnc2c1ncn2[C@@H]1O[C@H](COP(=O)(O)OP(=O)(O)O)[C@@H](O)[C@H]1O` [ADP, adenosine 5'-diphosphate, reference compound], the EC50 in [1] (K0.5, turkey erythrocyte membranes, read from graph) is 3160 nM; in [1] (setting [11]) it was 8000 ± 2000 nM. Further, the “fold less potent than ATP, turkey erythrocyte” value in assay [1] (relative to ATP) is recorded as 3 -fold. In addition, in assay [7], the “activity/potency in words, taenia coli” value is on record as “equipotent to ATP”. Also, the “relaxation pD2, aorta” value in [2] is 5.2. The “relaxation pD2, mes. artery” value in assay [8] is 5.2. Moreover, the “activity/potency in words, vas deferens” value in [4] is on record as “less potent than ATP”. In addition, in assay [5], the “activity/potency in words, bladder” value is listed as “equipotent with ATP”. In [9] (versus phospholipase C linked turkey erythrocyte receptor), the “selectivity for the adenylyl cyclase linked (C6 cell) receptor” value was 120 -fold.
Turning to `O=P(O)(O)OP(=O)(O)OP(=O)(O)OC[C@H]1O[C@@H](n2cnc3c2ncn2ccnc32)[C@H](O)[C@@H]1O` [N1,N^6 -etheno-ATP, reference compound], in [1] (setting [11]), the EC50 was above 100000 nM. The “activity/potency in words, vas deferens” value in assay [4] is “inactive in the vas deferens”. Moreover, in assay [5], the “activity/potency in words, bladder” value is “limited activity in the urinary bladder”. In [6], the “overall activity in words, all preparations” value is “greatly reduce or abolish activity within most P2X and P2Y preparations”.

The values are drawn from US5620676A, “Biologically active ATP analogs” (priority 1995, dated 1997).
